The source of these data is US20010051167A1, “USE OF 17-ALPHA-ESTRADIOL FOR THE TREATMENT OF AGED OR SUNDAMAGED SKIN AND/OR SKIN ATROPHY” (priority 1997, published 2001).

Assay [1] deals with epidermis of albino hairless mice (Skh-1). The assay can be described thus: Thickness of the epidermis after 10 weeks of topical treatment. Type of assay: in vivo, mouse.
The subject of assay [2] is UV-photodamaged dorsal trunk skin of albino hairless mice (Skh-1). Kind of assay: Dermal repair zone depth in UV-photodamaged hairless mouse skin after topical treatment. Type of assay: in vivo. The source says: In one method, a deficit in connective tissue synthesis is induced by long-term exposure of mouse skin to ultraviolet (UV) radiation. […] The repair can be visualized as a region of new connective tissue which forms as a subepidermal band in the papillary dermis after topical retinoid treatment (Kligman LH, Chapter 10: Animal Models of Photodamage and Its Treatment, pp. 136-156, In: Photodamage, edited by B. A. Gilchrest, 1995, Blackwell Science, Cambridge, Mass.). The old malformed elastotic tissue, produced during UV exposure, is compressed by the retinoid-induced new connective tissue zone.
Connective tissue photodamage was induced in albino hairless mice (Skh-1) (six to eight weeks old) by exposure of dorsal trunk skin to UV from FS40 fluorescent tubes, three days per week (Monday, Wednesday, Friday) for ten weeks. The UV dose started with one minimal erythemal dose (MED) and was increased gradually to 4.5 MEDs by week 5 and then continued at 4.5 MEDs for five more weeks. At the beginning of week 11, mice were treated topically with 0.1 mL test material on the dorsal trunk skin, three times per week (Monday, Wednesday, Friday) for 6 to 10 weeks. At the end of treatment, dorsal skin was excised and placed in 10% buffered formalin. The specimens were embedded, sectioned and stained with Luna's aldehyde fuchsin for elastic fibers. The dermal repair zone, defined as the area from the epidermal-dermal junction to the top of the compressed elastotic material, was quantified by measuring the depth of the zones with an image analyzer. […]

The test system of assay [3] is markers of reproductive function. The note with it: humans; administered subcutaneously; cited from earlier work.
Assay [4] relates to skin of albino hairless mice (Skh-1). Kind of assay: Estrogen-induced thickening of the skin (double skin-fold thickness). The assay is classed as in vivo, mouse. The note with it: Example 4, 3 days of topical treatment. The procedure:
In the second method, topical estrogens increase the thickness of the entire skin by enhancing its water content. This is due to estrogen-stimulated increases in hyaluronic acid, which is a biomolecule that has an avid water binding capacity (Grosman et al. Acta Pharmacol. Toxicol., 1971, Vol. 30, pp. 458-464). Estrogen-induced thickening of the skin was assessed in albino hairless mice (Skh-1). The skin is topically treated for 3 days with 0.1 mL test material. The next day after the last dose, double skin-fold thickness is measured with an engineer's vernier calipers. This example compares the effects of 17-α-Estradiol and 17-β-Estradiol on skin thickening after 3 days of topical treatment.

[5] abbreviates: Example 2, topical dose 0.1%, 10 Weeks.
[6] abbreviates: Example 3, topical dose 0.01%, 10 weeks.

As for `C[C@]12CCC3c4ccc(O)cc4CCC3C1CC[C@H]2O` (stereo partly drawn) [17-α-estradiol], the “Epidermal Thickness (μm) ± SE” value in assay [1] (Example 5, topical dose 0.05%) is listed as 29.3 ± 0.3 μm; in assay [1] (Example 5, topical dose 0.1%) it was 37.3 ± 1.8 μm; in assay [1] (Example 5, topical dose 0.5%), 42.9 ± 3.8 μm. The “Repair Zone Depth (μm) ± SE” value is on record as 71.8 ± 3.0 μm in assay [2] (Example 1, topical dose 0.50%, 10 weeks, 0.1 mL three times per week); 36.8 ± 2.4 μm in assay [2] (Example 2, topical dose 0.05%, 10 Weeks); 44.3 ± 2.3 μm in assay [2] (setting [5]); 44.6 ± 2.7 μm in assay [2] (Example 2, topical dose 0.5%, 6 Weeks); 51.6 ± 3.5 μm in assay [2] (Example 2, topical dose 0.5%, 10 Weeks); 49.4 ± 3.7 μm in assay [2] (setting [6]). Besides, the “Repair Zone Depth (μm) ± SE” value in assay [2] (Example 3, topical dose 0.05%, 10 weeks) came out at 34.3 ± 3.7 μm; in assay [2] (Example 3, topical dose 0.5%, 10 weeks), 62.4 ± 4.2 μm. For the same compound, the “biological activity on markers of reproductive function” value in assay [3] is reported as “lacked biological activity”. The Skin-Fold Thickness (mm) ± SE in assay [4] (topical dose 0.01%) stood at 1.16 ± 0.07 mm; in assay [4] (topical dose 0.1%) it was 1.43 ± 0.06 mm; in assay [4] (topical dose 0.5%), 1.52 ± 0.14 mm.
Consider `C[C@]12CC[C@@H]3c4ccc(O)cc4CC[C@H]3[C@@H]1CC[C@@H]2O` [17-β-estradiol], for which the “Epidermal Thickness (μm) ± SE” value in assay [1] (Example 5, topical dose 0.005%) is recorded as 32.0 ± 1.2 μm; in assay [1] (Example 5, topical dose 0.01%) it was 28.3 ± 1.8 μm; in assay [1] (Example 5, topical dose 0.1%) it was 48.1 ± 2.9 μm. The “Repair Zone Depth (μm) ± SE” value is given as 57.4 ± 6.1 μm in assay [2] (Example 1, topical dose 0.01%, 10 weeks, 0.1 mL three times per week); 46.3 ± 0.9 μm in assay [2] (Example 2, topical dose 0.1%, 6 Weeks); 38.7 ± 2.5 μm in assay [2] (setting [5]); 45.2 ± 3.1 μm in assay [2] (Example 3, topical dose 0.005%, 10 weeks); 53.4 ± 2.1 μm in assay [2] (setting [6]); 68.2 ± 6.0 μm in assay [2] (Example 3, topical dose 0.1%, 10 weeks). The results for the Skin-Fold Thickness (mm) ± SE in assay [4] (topical dose 0.001%), in assay [4] (topical dose 0.01%) and in assay [4] (topical dose 0.1%) were 1.25 ± 0.08 mm, 1.62 ± 0.11 mm and 1.5 ± 0.13 mm, respectively.
As for `CC1=C(/C=C/C(C)=C/C=C/C(C)=C/C(=O)O)C(C)(C)CCC1` [All-trans-retinoic acid], the “Epidermal Thickness (μm) ± SE” value in assay [1] (Example 5, topical dose 0.03%) worked out at 52.8 ± 3.6 μm. For the same compound, the “Repair Zone Depth (μm) ± SE” value was found to be 72.0 ± 2.6 μm in assay [2] (Example 1, topical dose 0.03%, 10 weeks, 0.1 mL three times per week); 44.5 ± 3.9 μm in assay [2] (Example 2, topical dose 0.03%, 6 Weeks); 59.0 ± 2.3 μm in assay [2] (Example 2, topical dose 0.03%, 10 Weeks); 72.0 ± 3.3 μm in assay [2] (Example 3, topical dose 0.03%, 10 weeks).
